How the values were obtained:
SH-SY5Y cell line = experiment: Cytotoxicity study (WST) on SH-SY5Y cells; format: cell-based; settings: Homo sapiens
Method: (§1) SY-SH5Y and PC-12 cell lines were used in in vitro cell culture studies. SH-SY5Y cells in a medium consisting of minimum Essential Medium (Eagle) and 10% fetal bovine serum (FBS); PC-12 cells were produced in a medium consisting of RPMI 1640 medium, 10% horse serum, and 5% fetal bovine serum (FBS). All cells were incubated in 5% CO2 and 37 °C. Fresh medium was added by changing the medium every 2 days. After the cells were produced enough to cover 80% of the flasks, they were separated from the flask by means of a 0.25% (W / V) trypsin–EDTA solution and plated in 24-well plates for incorporation studies and 96-well plates for cytotoxicity studies and study groups were formed.
(§2) Cells were prepared from SY-SH5Y and PC-12 cell suspensions at 5 × 10^4 cells / mL in each well of 96-well plates. One hundred microliters of cell suspension was added to each well-formed and the solution containing MA prepared with sterile SF at five different (10^0, 10^–1, 10^–2, 10^–3, 10^–4 nM) concentrations was added to the wells outside the control. As a negative control, media without cells and reagents were used. In the study, each parameter was studied in triplicate. The plate containing the cells was incubated at 37 °C in 5% CO2. SH-SY5Y cells were incubated at 24, 48, and 72 h of incubation by adding 10 μl of WST solution to each well and incubating for another 4 h. On other hand, MTT solution was added to PC-12 cells and incubated for 4 more hours. At the end of the incubation, the MTT solution on the cells was removed and 200 µL DMSO was added to the PC-12 cells. All cells were read using a spectrophotometer, at 450 nm wavelength and 690 nm reference range, for the absorbance value of each well. Negative control was accepted as zero absorbance and % viability values were calculated with the formula [(measured absorbance value/control value) × 100] and the same procedures were repeated for the MA-L-DOPA compound.

PC-12 cell line = experiment: Cytotoxicity study (MTT) on PC-12 cells; format: cell-based; settings: Rattus norvegicus
Method: as §1, §2

[1] = parameters: method as in PMID 27992940; settings: rats; cited from earlier work

SMILES	IC50 (SH-SY5Y cell line; 24 hour) [µM]	IC50 (SH-SY5Y cell line; 48 hour) [µM]	IC50 (SH-SY5Y cell line; 72 hour) [µM]	IC50 (PC-12 cell line; PC-12, 24 hour) [µM]	IC50 (PC-12 cell line; PC-12, 48 hour) [µM]	IC50 (PC-12 cell line; PC-12, 72 hour) [µM]	time within which uptake in the brain tissue occurs [1] [h]
C[C@H]1[C@H](C)CC[C@]2(C(=O)O[C@@H]3O[C@H](CO[C@@H]4O[C@H](CO)[C@@H](O[C@@H]5O[C@@H](C)[C@H](O)[C@@H](O)[C@H]5O)[C@H](O)[C@H]4O)[C@@H](O)[C@H](O)[C@H]3O)CC[C@]3(C)C(=CC[C@@H]4[C@@]5(C)C[C@@H](O)[C@H](O)[C@@](C)(CO)[C@@H]5[C@H](O)C[C@]43C)[C@H]12 [MA, Madecassoside]	12.9 ± 2.14	12.8 ± 2.24	7.45 ± 1.14	12.8 ± 2.21	12.6 ± 2.41	8.54 ± 1.37	≤ 1
CC1CCC2(C(=O)OC3OC(COC4OC(CO)C(OC5OC(C)C(O)C(OC(=O)C(N)Cc6ccc(O)c(O)c6)C5O)C(O)C4O)C(O)C(O)C3O)CCC3(C)C(=CCC4C5(C)CC(O)C(O)C(C)(CO)C5C(O)CC43C)C2C1C [MA-L-DOPA]	12.9 ± 2.09	10.1 ± 2.08	7.16 ± 1.11	12.5 ± 2.21	10 ± 2.06	6.93 ± 1.09	–
